The source of these data is patent US5395610A, “Agents for potentiating the effects of antitumor agents and combating multiple drug resistance” (Burroughs-Wellcome Co., priority 1989, dated 1995).

The structures appear in SMILES notation. Counter-ions that a name gives are not always drawn.

For data set [1], the system named is human KB epidermoid carcinoma cells, drug resistant KB V-1. The data set can be described thus: In vitro cytotoxicity / potentiation of Actinomycin D in human KB epidermoid carcinoma cells, drug resistant KB V-1 (MTT). It is filed as cell-based. The note with it: 96 h, fraction of Act D alone.
Experiment in data set [2]: as above
It is filed as cell-based. The note with it: human, kb v-1 cells, fraction of untreated cultures, read-out: Cytotoxicity, normalized absorbance, Drug Resistant KB V-1, 0 (no Act D); for viability at 96 h, 1 µM: 1 μM potentiating agent alone; for viability at 96 h, 10 µM: 10 μM potentiating agent alone.

The next data set is described as follows: in vitro. It is filed as cell-based, Chinese hamster. The note with it: hamster, cho auxb1 cells.
Data set [3] deals with Chinese hamster ovary (CHO) cells, drug resistant C5S32. The data set can be described thus: In vitro cytotoxicity / potentiation of Actinomycin D in Chinese hamster ovary cells, drug resistant C5S32 (MTT). The data set is classed as cell-based. As to conditions: 96 h, fraction of Act D alone (1.00).
Experiment in data set [4]: as above
As to conditions: hamster, cho c5s32 cells, fraction of untreated cultures (1.00), read-out: Cytotoxicity, normalized absorbance, Drug Resistant C5S32, 0 (no Act D); for viability at 96 h, 1 µM: 1 μM potentiating agent alone; for viability at 96 h, 10 µM: 10 μM potentiating agent alone. The data set is classed as cell-based.

Data set [5] relates to human KB epidermoid carcinoma cells, wildtype KB 3-1. The data set can be described thus: In vitro cytotoxicity / potentiation of Actinomycin D in human KB epidermoid carcinoma cells, wildtype KB 3-1 (MTT). The data set is classed as cell-based. The note with it: 96 h, fraction of Act D alone.
Experiment in data set [6]: as above
It is filed as cell-based. The note with it: human, kb 3-1 cells, fraction of untreated cultures, read-out: Cytotoxicity, normalized absorbance, Wildtype KB 3-1, 0 (no Act D); for viability at 96 h, 1 µM: 1 μM potentiating agent alone; for viability at 96 h, 10 µM: 10 μM potentiating agent alone.

Setting [7] is: 10 μM potentiating agent + Act D 20 nM.
[8] abbreviates: 1 μM potentiating agent + Act D 0.5 μM.
Setting [9] is: 10 μM potentiating agent + Act D 0.5 μM.
Setting [10] is: 10 μM potentiating agent + Act D 0.1 nM.
The mark [11] stands for this setting: 1 μM potentiating agent + Act D 20 nM.
[12] abbreviates: 1 μM potentiating agent + Act D 0.1 nM.

Regarding `CN(C)CC/C=C1\c2ccccc2COc2ccc(Br)cc21` [(B), (E)-3-(2-Bromo-6,11-dihydrodibenz [b,e]oxepin-11-ylidene)-N,N-dimethylpropylamine 3/2 hydrochloride], the “Synergism with Actinomycin D, normalized absorbance, Drug Resistant KB V-1, +ACT D” value in data set [1] (setting [7]) is 0.01. The viability at 96 h, 1 µM in data set [2] is 100%; in “in vitro”, 98%; in data set [4] it was 83%; in data set [6], 100%. Further, the viability at 96 h, 10 µM is 44% in data set [2], 87% in “in vitro”, 55% in data set [4] and 83% in data set [6]. The “Synergism with Actinomycin D, normalized absorbance, Drug Resistant C5S32, +ACT D” value in data set [3] (setting [8]) is listed as 0.82; in data set [3] (setting [9]), 0.37. Further, the “Synergism with Actinomycin D, normalized absorbance, Wildtype KB 3-1, +ACT D” value in data set [5] (setting [10]) is on record as 0.91.

Regarding `Brc1ccc2c(c1)/C(=C/CCN1CCCC1)c1cc(Br)ccc1OC2` [(O), (Z)-1-[3-(2,9-dibromo-6,11-dihydrodibenz [b,e]-oxepin-11-ylidene)propyl]pyrrolidine], the entries for the “Synergism with Actinomycin D, normalized absorbance, Drug Resistant KB V-1, +ACT D” value in data set [1] (setting [11]) and in data set [1] (setting [7]) were 0.78 and 0.06, respectively. In addition, the viability at 96 h, 1 µM came out at 74% in data set [2], 100% in the data set “in vitro”, 48% in data set [4] and 79% in data set [6]. Also, the viability at 96 h, 10 µM was determined as 7% in data set [2], 93% in “in vitro”, 35% in data set [4] and 64% in data set [6]. For the same molecule, the “Synergism with Actinomycin D, normalized absorbance, Drug Resistant C5S32, +ACT D” value is 0.58 in data set [3] (setting [8]) and 0.38 in data set [3] (setting [9]). The “Synergism with Actinomycin D, normalized absorbance, Wildtype KB 3-1, +ACT D” value was determined as 0.81 in data set [5] (setting [12]) and 0.73 in data set [5] (setting [10]).

Regarding `CCN(CC)CC/C=C1/c2ccccc2COc2ccc(Br)cc21` [(I), (Z)-3-(2-Bromo-6,11-dihydrodibenz [b,e]oxepin-11-ylidene)-N,N-diethylpropylamine], the “Synergism with Actinomycin D, normalized absorbance, Drug Resistant KB V-1, +ACT D” value in data set [1] (setting [11]) is 0.95; in data set [1] (setting [7]), 0.04. The viability at 96 h, 1 µM in data set [2] was 98%; in “in vitro” it was 90%; in data set [4] it was 95%; in data set [6], 99%. The viability at 96 h, 10 µM in data set [2] turned out to be 34%; in “in vitro”, 92%; in data set [4], 100%; in data set [6] it was 30%. For the same molecule, the figures for the “Synergism with Actinomycin D, normalized absorbance, Drug Resistant C5S32, +ACT D” value in data set [3] (setting [8]) and in data set [3] (setting [9]) were 0.77 and 0.36, respectively. In addition, the “Synergism with Actinomycin D, normalized absorbance, Wildtype KB 3-1, +ACT D” value in data set [5] (setting [12]) was 0.99; in data set [5] (setting [10]), 0.40.

`CN(C)CCC=C1c2ccc(Br)cc2COc2ccccc21` [(L), (E)/(Z) -3-(8-Bromo-6,11-dihydrodibenz [b,e]-oxepine-11-ylidene)-N,N-dimethylpropylamine (80% Z:20% E)]: the figures for the “Synergism with Actinomycin D, normalized absorbance, Drug Resistant KB V-1, +ACT D” value in data set [1] (setting [11]) and in data set [1] (setting [7]) were 1.00 and 0.23, respectively. The viability at 96 h, 1 µM in data set [2] was found to be 98%; in “in vitro”, 83%; in data set [4], 92%; in data set [6], 100%. Moreover, the viability at 96 h, 10 µM in data set [2] turned out to be 51%; in the data set “in vitro” it was 81%; in data set [4] it was 99%; in data set [6], 97%. Further, the “Synergism with Actinomycin D, normalized absorbance, Drug Resistant C5S32, +ACT D” value amounted to 0.85 in data set [3] (setting [8]) and 0.42 in data set [3] (setting [9]). Further, the “Synergism with Actinomycin D, normalized absorbance, Wildtype KB 3-1, +ACT D” value in data set [5] (setting [10]) was found to be 0.94.

As for `CN(C)CC/C=C1/c2ccccc2COc2ccc(F)cc21` [(Q), (Z)-3-(2-fluoro-6,11-dihydrodibenz [b,e]oxepin-11-ylidene)-N,N-dimethylpropylamine], the “Synergism with Actinomycin D, normalized absorbance, Drug Resistant KB V-1, +ACT D” value is 0.83 in data set [1] (setting [11]) and 0.65 in data set [1] (setting [7]). For the same molecule, the viability at 96 h, 1 µM in data set [2] was determined as 86%; in “in vitro”, 97%; in data set [4], 53%; in data set [6], 92%. In addition, the viability at 96 h, 10 µM was 80% in data set [2], 93% in the data set “in vitro”, 33% in data set [4] and 77% in data set [6]. Besides, the “Synergism with Actinomycin D, normalized absorbance, Drug Resistant C5S32, +ACT D” value worked out at 0.69 in data set [3] (setting [8]) and 0.37 in data set [3] (setting [9]). Also, the “Synergism with Actinomycin D, normalized absorbance, Wildtype KB 3-1, +ACT D” value in data set [5] (setting [12]) is 0.91; in data set [5] (setting [10]), 0.78.

`Brc1ccc2c(c1)/C(=C\CCN1CCCC1)c1ccccc1CO2` [(G), (Z)-1-[3-(2-Bromo-6,11-dihydrodibenz [b,e]-oxepin-11-ylidene)propyl]pyrrolidine]: the “Synergism with Actinomycin D, normalized absorbance, Drug Resistant KB V-1, +ACT D” value in data set [1] (setting [11]) is on record as 0.91; in data set [1] (setting [7]), 0.35. For the same molecule, the viability at 96 h, 1 µM was found to be 86% in data set [2], 100% in the data set “in vitro”, 54% in data set [4] and 87% in data set [6]. Also, the viability at 96 h, 10 µM in data set [2] stood at 70%; in the data set “in vitro”, 100%; in data set [4] it was 15%; in data set [6], 74%. Also, the “Synergism with Actinomycin D, normalized absorbance, Drug Resistant C5S32, +ACT D” value amounted to 0.47 in data set [3] (setting [8]) and 0.10 in data set [3] (setting [9]). For the same molecule, the “Synergism with Actinomycin D, normalized absorbance, Wildtype KB 3-1, +ACT D” value in data set [5] (setting [12]) is recorded as 0.80; in data set [5] (setting [10]), 0.87.

Regarding `Fc1ccc2c(c1)/C(=C\CCN1CCCC1)c1ccccc1CO2` [(T), (Z)-1-[3-(2-fluoro-6,11-dihydrodibenz [b,e]-oxepin-11-ylidene)propyl]pyrrolidine], the “Synergism with Actinomycin D, normalized absorbance, Drug Resistant KB V-1, +ACT D” value in data set [1] (setting [11]) amounted to 0.92; in data set [1] (setting [7]), 0.64. Further, the viability at 96 h, 1 µM in data set [2] came to 96%; in the data set “in vitro”, 100%; in data set [4], 100%; in data set [6], 86%. Also, the viability at 96 h, 10 µM in data set [2] stood at 84%; in “in vitro”, 100%; in data set [4], 100%; in data set [6] it was 81%. In addition, the results for the “Synergism with Actinomycin D, normalized absorbance, Drug Resistant C5S32, +ACT D” value in data set [3] (setting [8]) and in data set [3] (setting [9]) were 1.00 and 0.53, respectively. The entries for the “Synergism with Actinomycin D, normalized absorbance, Wildtype KB 3-1, +ACT D” value in data set [5] (setting [12]) and in data set [5] (setting [10]) were 0.90 and 0.83, respectively.
